# According to the supplement of paper PMC11061612:
# Assays:
# [1] = tested on: 22RV1 (Prostate Carcinoma); assay: Bliss excess, mean over the matrix (fraction); higher = more synergy
# Summary of the method: (§1)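 Bliss excess equals the observed combination effect minus the expected value EA + EB − EA·EB, where EA and EB are the effects of each agent alone. Combination Emax is the second-highest inhibition within the matrix. Inhibition was scaled from CellTiter-Glo 2.0 luminescence, with 0 set by vehicle wells and 1 by blank wells, after 72 hours of two-drug dosing of cells plated in 1536-well plates.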
# [2] = tested on: KYSE-220 (Esophageal Squamous Cell Carcinoma); assay: as above
# Summary of the method: as §1
# [3] = tested on: NCI-H2087 (Lung Adenocarcinoma); assay: as above
# Summary of the method: as §1
# MKN1 (Gastric Carcinoma) [4] = assay: as above
# Summary of the method: as §1
# PEO1 (Ovarian Carcinoma) = assay: as above
# Summary of the method: as §1
# [5] = tested on: UACC-812 (Breast Carcinoma); assay: as above
# Summary of the method: as §1
# [6] = tested on: NCI-H1703 (Squamous Cell Lung Carcinoma); assay: as above
# Summary of the method: as §1
# [7] = tested on: NCI-H841 (Small Cell Lung Carcinoma); assay: as above
# Summary of the method: as §1
# MKN1 (Gastric Carcinoma) [8] = assay: combination Emax (second highest fraction inhibited in the dose matrix, 72 h); higher = more inhibition; extreme values may be limits of the assay
# Summary of the method: as §1
# [9] = tested on: NCI-H841 (Small Cell Lung Carcinoma); assay: as above
# Summary of the method: as §1
# KP-N-YN (Neuroblastoma) = assay: Bliss excess, mean over the matrix (fraction); higher = more synergy
# Summary of the method: as §1
SMILES,Bliss excess [1],Bliss excess [2],Bliss excess [3],Bliss excess (MKN1 (Gastric Carcinoma) [4]),Bliss excess (PEO1 (Ovarian Carcinoma)),Bliss excess [5],Bliss excess [6],Bliss excess [7],combination Emax (MKN1 (Gastric Carcinoma) [8]),combination Emax [9],Bliss excess (KP-N-YN (Neuroblastoma))
"Cc1c2c(nn1C)CSCc1cc(n(C)n1)CSc1cc(c3ccccc3c1)OCCCc1c(C(=O)O)n(C)c3c-2c(Cl)ccc13 [AZD5991] + Nc1ccn([C@@H]2O[C@H](CO)[C@@H](O)C2(F)F)c(=O)n1 [Gemcitabine] (first compound max 1 µM, 7x7, partner max 0.3 µM)",-0.02,0.0842,-0.0307,-0.0205,-0.0523,-0.0041,-0.0604,0.0135,0.624,0.567,
"Cc1c2c(nn1C)CSCc1cc(n(C)n1)CSc1cc(c3ccccc3c1)OCCCc1c(C(=O)O)n(C)c3c-2c(Cl)ccc13 [AZD5991] + CC(=O)O[C@H]1C(=O)[C@@]2(C)[C@H]([C@H](OC(=O)c3ccccc3)[C@]3(O)C[C@H](OC(=O)[C@H](O)[C@@H](NC(=O)c4ccccc4)c4ccccc4)C(C)=C1C3(C)C)[C@]1(OC(C)=O)CO[C@@H]1C[C@@H]2O [Paclitaxel] (first compound max 1 µM, 7x7, partner max 3 µM)",0.0731,-0.006,0.0128,-0.103,-0.0624,0.0968,-0.0136,0.0663,0.824,0.973,-0.0275
"CC1(C)CCC(CN2CCN(c3ccc(C(=O)NS(=O)(=O)c4ccc(NCC5CCOCC5)c([N+](=O)[O-])c4)c(Oc4cnc5[nH]ccc5c4)c3)CC2)=C(c2ccc(Cl)cc2)C1 [Venetoclax] + CS(=O)(=O)CCNCc1ccc(-c2ccc3ncnc(Nc4ccc(OCc5cccc(F)c5)c(Cl)c4)c3c2)o1 [Lapatinib] (first compound max 1 µM, 7x7, partner max 10 µM)",-0.0688,-0.0233,-0.0431,-0.0194,-0.0673,0.0062,0.0019,-0.0506,0.433,0.13,-0.0157
"O=C(c1cc(Cc2n[nH]c(=O)c3ccccc23)ccc1F)N1CCN(C(=O)C2CC2)CC1 [Olaparib] + Cc1c2c(nn1C)CSCc1cc(n(C)n1)CSc1cc(c3ccccc3c1)OCCCc1c(C(=O)O)n(C)c3c-2c(Cl)ccc13 [AZD5991] (first compound max 10 µM, 7x7, partner max 1 µM)",-0.0012,-0.0573,-0.0327,-0.0332,-0.069,-0.0301,-0.0244,-0.0522,0.118,0.126,-0.068
"C[C@@H](Oc1cc(-c2cnn(C3CCNCC3)c2)cnc1N)c1c(Cl)ccc(F)c1Cl [Crizotinib] + CC1=C(C(=CC=C1)Cl)NC(=O)C2=CN=C(S2)NC3=CC(=NC(=N3)C)N4CCN(CC4)CCO [Dasatinib] (first compound max 10 µM, 7x7, partner max 2 µM)",-0.0187,-0.0166,-0.0254,0.0586,-0.0226,-0.0135,-0.0736,-0.0089,0.866,0.301,-0.0895
"C[C@@H]1COCCN1c1cc(C2([S@](C)(=N)=O)CC2)nc(-c2ccnc3[nH]ccc23)n1 [AZD6738] + Nc1ccn([C@@H]2O[C@H](CO)[C@@H](O)C2(F)F)c(=O)n1 [Gemcitabine] (first compound max 10 µM, 7x7, partner max 0.3 µM)",-0.0011,-0.0686,0.0743,0.0369,0.0764,0.0592,-0.006,0.0975,0.951,0.829,
"CS(=O)(=O)CCNCc1ccc(-c2ccc3ncnc(Nc4ccc(OCc5cccc(F)c5)c(Cl)c4)c3c2)o1 [Lapatinib] + Cn1cnc2c(F)c(Nc3ccc(Br)cc3Cl)c(C(=O)NOCCO)cc21 [Selumetinib] (first compound max 10 µM, 7x7, partner max 10 µM)",-0.045,-0.0056,-0.0455,-0.002,-0.0453,-0.0001,-0.0179,0.0251,0.596,0.303,-0.0666
"O=C(c1cc(Cc2n[nH]c(=O)c3ccccc23)ccc1F)N1CCN(C(=O)C2CC2)CC1 [Olaparib] + CN(CC[C@H](CSC1=CC=CC=C1)NC2=C(C=C(C=C2)S(=O)(=O)NC(=O)C3=CC=C(C=C3)N4CCC(CC4)[C@H](C5=CC=CC=C5C6=CC=C(C=C6)Cl)O)S(=O)(=O)C(F)(F)F)CCO [AZD4320] (first compound max 10 µM, 7x7, partner max 1 µM)",-0.0864,-0.0169,-0.0215,-0.0238,-0.083,-0.0086,-0.0311,-0.0526,0.165,0.0513,0.0322
"CS(=O)(=O)CCNCc1ccc(-c2ccc3ncnc(Nc4ccc(OCc5cccc(F)c5)c(Cl)c4)c3c2)o1 [Lapatinib] + NC1(c2ccc(-c3nc4ccn5c(=O)[nH]nc5c4cc3-c3ccccc3)cc2)CCC1 [MK-2206] (first compound max 10 µM, 7x7, partner max 10 µM)",-0.0139,-0.0099,-0.0221,0.0099,-0.0687,,-0.0136,-0.0246,0.925,0.17,0.0876
"O=C(c1cc(Cc2n[nH]c(=O)c3ccccc23)ccc1F)N1CCN(C(=O)C2CC2)CC1 [Olaparib] + COc1nnc2ccc(N3CCC(c4ccc(OCCN5CCN(C)C(=O)[C@H]5C)cc4)CC3)nn12 [AZD5153] (first compound max 10 µM, 7x7, partner max 1 µM)",-0.0312,-0.045,-0.0304,-0.0577,-0.0367,-0.0384,-0.0244,-0.0593,0.631,0.236,-0.0142
"Cc1c2c(nn1C)CSCc1cc(n(C)n1)CSc1cc(c3ccccc3c1)OCCCc1c(C(=O)O)n(C)c3c-2c(Cl)ccc13 [AZD5991] + CS(=O)(=O)CCNCc1ccc(-c2ccc3ncnc(Nc4ccc(OCc5cccc(F)c5)c(Cl)c4)c3c2)o1 [Lapatinib] (first compound max 1 µM, 7x7, partner max 10 µM)",-0.0131,0.0157,0.0165,-0.0016,-0.0352,0.0603,-0.0374,-0.0161,0.53,0.3,0.0426
"C=CCn1c(=O)c2cnc(Nc3ccc(N4CCN(C)CC4)cc3)nc2n1-c1cccc(C(C)(C)O)n1 [AZD1775] + Nc1ccn([C@@H]2O[C@H](CO)[C@@H](O)C2(F)F)c(=O)n1 [Gemcitabine] (first compound max 1 µM, partner max 0.3 µM)",-0.0225,0.0029,0.0247,0.0171,0.0712,-0.0613,0.0364,0.0425,0.927,0.726,
"C=CCn1c(=O)c2cnc(Nc3ccc(N4CCN(C)CC4)cc3)nc2n1-c1cccc(C(C)(C)O)n1 [AZD1775] + CCc1c2c(nc3ccc(O)cc13)-c1cc3c(c(=O)n1C2)COC(=O)[C@]3(O)CC [SN-38] (first compound max 1 µM, partner max 0.3 µM)",-0.0464,-0.0563,0.0067,-0.0056,-0.0267,-0.0472,-0.0341,-0.0421,0.869,0.66,-0.0339
"CN(CCO)CC[C@H](CSc1ccccc1)Nc1ccc(S(=O)(=O)NC(=O)c2ccc(N3CCC([C@@H](O)c4ccccc4-c4ccc(Cl)cc4)CC3)cc2)cc1S(=O)(=O)C(F)(F)F [AZD4320] + CS(=O)(=O)CCNCc1ccc(-c2ccc3ncnc(Nc4ccc(OCc5cccc(F)c5)c(Cl)c4)c3c2)o1 [Lapatinib] (first compound max 1 µM, 7x7, partner max 10 µM)",-0.0394,0.0087,-0.0033,0.046,0.0311,-0.0066,0.0162,-0.0037,0.888,0.237,0.0811
"C[C@@H](Nc1cc(F)cc(F)c1)c1cc(C(=O)N(C)C)cc2c(=O)cc(N3CCOCC3)oc12 [AZD8186] + CC(=O)c1c(C)c2cnc(Nc3ccc(N4CCNCC4)cn3)nc2n(C2CCCC2)c1=O [Palbociclib] (first compound max 10 µM, 7x7, partner max 10 µM)",-0.0421,-0.0494,-0.0232,0.0017,-0.026,0.0506,0.0093,0.0118,0.674,0.266,0.0108
"O=C(c1cc(Cc2n[nH]c(=O)c3ccccc23)ccc1F)N1CCN(C(=O)C2CC2)CC1 [Olaparib] + CC1(C)CCC(CN2CCN(c3ccc(C(=O)NS(=O)(=O)c4ccc(NCC5CCOCC5)c([N+](=O)[O-])c4)c(Oc4cnc5[nH]ccc5c4)c3)CC2)=C(c2ccc(Cl)cc2)C1 [Venetoclax] (first compound max 10 µM, 7x7, partner max 1 µM)",-0.0622,-0.0369,-0.0543,-0.0437,-0.0786,-0.0202,-0.0065,-0.057,0.122,0.0548,0.186
"C[C@@H](Nc1cc(F)cc(F)c1)c1cc(C(=O)N(C)C)cc2c(=O)cc(N3CCOCC3)oc12 [AZD8186] + C1CN(CCC1(C(=O)N[C@@H](CCO)C2=CC=C(C=C2)Cl)N)C3=NC=NC4=C3C=CN4 [AZD5363] (first compound max 10 µM, 7x7, partner max 10 µM)",-0.0401,-0.0132,-0.0043,-0.0304,-0.0405,-0.0187,0.0503,-0.025,0.491,0.293,-0.0765
"Cc1nc(-c2cn3c(n2)-c2ccc(-c4cnn(C(C)(C)C(N)=O)c4)cc2OCC3)n(C(C)C)n1 [Taselisib] + O=C(Nc1ccc2[nH]nc(-c3ccncc3)c2c1)[C@@H]1CCN(CC(=O)N2CCN(c3ccc(-c4ncccn4)cc3)CC2)C1 [SCH772984] (first compound max 10 µM, 7x7, partner max 5 µM)",0.0502,0.116,0.0543,0.0698,0.0874,0.0095,-0.0292,0.0606,0.838,0.439,0.0278
"C[C@@H](Oc1cc(-c2cnn(C3CCNCC3)c2)cnc1N)c1c(Cl)ccc(F)c1Cl [Crizotinib] + Cn1cnc2c(F)c(Nc3ccc(Br)cc3Cl)c(C(=O)NOCCO)cc21 [Selumetinib] (first compound max 10 µM, 7x7, partner max 10 µM)",0.0331,0.0436,-0.0078,0.0001,-0.0013,-0.0437,-0.0569,-0.0528,0.561,0.202,-0.105
